Here are results for 15 molecules from patent US20070037193A1, “Modulation of peroxisome proliferator-activated receptors” (priority 2005, published 2007).

In one assay the test system is PGR3/ZADH2. Briefly: Substrate specificity of PGR3/ZADH2. Type of assay: biochemical. Conditions: 15-keto PGE2 replaced with the test substrate. Here is the method:
(§1) Enzymatic activity was determined as follows. 10 μg of the recombinant mouse or human PGR3/ZADH2 protein was incubated at 37° C. in a reaction buffer containing 0.1IM Tris-HCl (pH7.4), 0.5 mM NADPH, and 0.57 mM 15-keto PGE2. The reaction was conducted at 37° C. in the dark for 10 minutes and terminated by adding 700 μl of a buffer which contained 50 mM potassium hydrogen phthalate, pH 3.0, and 1% Tween 20. 200 μl of a color development reagent, which contained 790 μM indonitrotetrazolium chloride, 60 μM phenazene methosulfate, and 1% Tween 20, was added to oxidize any unreacted NADPH. Absorbance at 490 nm was measured by an ELISA plate reader. A standard curve was generated using reaction buffers containing serially diluted amounts of NADPH.
Substrate specificity of PGR3/ZADH2 was determined using the just-described procedure, except that 15-keto PGE2 was replaced with each of six prostaglandin substrates, each of three downstream metabolites, or leukotriene B4.

In a further assay the target is T1, Mouse PGR3/ZADH2 (Mus musculus, UniProt Q8BGC4).
T1 construct: GST; made in house; host or cells: E. coli
T1 sequence (Q8BGC4 1-377): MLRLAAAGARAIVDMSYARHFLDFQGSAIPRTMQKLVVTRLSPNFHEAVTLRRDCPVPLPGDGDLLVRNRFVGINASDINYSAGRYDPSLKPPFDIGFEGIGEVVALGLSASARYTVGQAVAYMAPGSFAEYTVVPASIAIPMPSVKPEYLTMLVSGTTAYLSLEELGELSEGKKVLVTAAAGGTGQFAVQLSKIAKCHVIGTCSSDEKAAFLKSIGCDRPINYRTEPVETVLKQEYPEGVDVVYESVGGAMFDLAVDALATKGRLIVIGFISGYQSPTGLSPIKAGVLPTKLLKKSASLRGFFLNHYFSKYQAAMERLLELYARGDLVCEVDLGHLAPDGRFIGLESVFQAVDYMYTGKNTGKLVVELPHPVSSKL
The experiment in a line: PGR3/ZADH2 enzyme inhibition assay (reduction of 15-keto-PGE2, NADPH consumption). Conditions: 50 μM compound, No Inhibitor = 100. The assay is classed as biochemical. The procedure:
as §1
(§2) Compounds 1-49 were tested for their inhibitory effects on PGR3/ZADH2 activity. These compounds are either commercially available (e.g., from Sigma-Aldrich, St. Louis, Mo.) or can be prepared from methods known in the art. The inhibition assay was performed following the procedure described above. Different concentrations of PGR3/ZADH2 inhibitors were added to the reaction mixture and incubated for 2 hours at 37° C.
(§3) More specifically, 50 μM of compounds 8, 12, 13, and 27, and 25 μM of tri-fluorobenzyl-2-hydroxycinnamate (compound 22) were added to the PGR3/ZADH2 enzyme reaction system and the ability of enzyme to reduce 15-keto-PGE2 were measured.

Another assay concerns the target T2, Human PGR3/ZADH2 (Homo sapiens, UniProt Q8N4Q0).
T2 construct: GST; made in house; host or cells: E. coli
T2 sequence (Q8N4Q0 1-377): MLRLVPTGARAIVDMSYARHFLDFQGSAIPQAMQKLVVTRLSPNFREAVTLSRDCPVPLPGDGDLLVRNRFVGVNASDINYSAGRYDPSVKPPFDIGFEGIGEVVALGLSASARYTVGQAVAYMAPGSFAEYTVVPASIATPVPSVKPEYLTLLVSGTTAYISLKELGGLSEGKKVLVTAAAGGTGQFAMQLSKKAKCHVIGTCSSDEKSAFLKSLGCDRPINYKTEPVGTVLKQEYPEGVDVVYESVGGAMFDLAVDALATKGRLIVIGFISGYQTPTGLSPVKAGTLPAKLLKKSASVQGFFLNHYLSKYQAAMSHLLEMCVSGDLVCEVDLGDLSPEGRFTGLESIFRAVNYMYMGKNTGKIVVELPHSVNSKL
The assay is described as above. The assay is classed as biochemical. The settings on record: 50 μM compound, No Inhibitor = 100. The procedure:
as §1, §2, §3

In another assay the test system is endogenous PPAR. The experiment in a line: Reporter gene assay of endogenous PPAR activity in differentiating 3T3-L1 cells. The assay is classed as cell-based. The settings on record: 3T3-L1 cells induced to differentiate for two days. The procedure: (§4) The effect of prostaglandin on PPAR-gamma activity in adipocytes was investigated. After treatment with a medium that induces cell differentiation, 3T3-L1 cells were treated from day 2 to 4 during adipogenesis with 14 μM 15-keto PGE2, 13,14-dihydro-15-keto PGE2, 15-keto PGF2α, 13,14-dihydro-15-keto PGF2α, or 4.5 μM of BRL49653, a PPAR-gamma agonist. See Forman et al., Cell (1995) 83:803-812. At day 6, aggregates of lipid droplets were stained with oil-red O for observation. […] After being induced to differentiate for two days, the 3T3-L1 cells were transfected with a reporter gene.
In general terms: Reporter assays use an easily measured gene product as a stand-in for the process of interest.

The target in another assay is T3, PPAR-gamma (Homo sapiens, UniProt P37231).
T3 construct: expressed in transfected cells; host or cells: 3T3-L1 cells
T3 sequence (P37231 238-503 limits assumed): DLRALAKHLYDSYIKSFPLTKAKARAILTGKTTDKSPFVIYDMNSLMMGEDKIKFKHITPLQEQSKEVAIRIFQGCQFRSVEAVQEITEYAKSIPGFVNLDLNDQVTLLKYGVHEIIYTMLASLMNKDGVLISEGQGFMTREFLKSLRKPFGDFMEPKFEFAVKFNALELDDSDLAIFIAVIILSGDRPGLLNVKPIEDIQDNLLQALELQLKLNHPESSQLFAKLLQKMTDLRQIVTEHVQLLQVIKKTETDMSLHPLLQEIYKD
Briefly: GAL4-PPAR ligand-binding domain luciferase reporter in 3T3-L1 cells. Type of assay: cell-based. The source says:
A luciferase reporter gene was transfected to 3T3-L1 cells together with the ligand-binding domain of PPAR-alpha, PPAR-gamma or PPAR-delta fused to a yeast GAL4 DNA-binding domain.

A further assay deals with PPAR-gamma target genes. Briefly: Protein expression of adipogenesis-specific PPAR-gamma target genes in 3T3-L1 cells. Type of assay: cell-based. The text has this:
Also examined was the ability of 15-keto PGE2 to induce protein expression of adipogenesis-specific, PPAR-gamma target genes, i.e., IRS-1 and -2.

For another assay, the system named is 3T3-L1 cells. The experiment in a line: Adipogenesis in 3T3-L1 cells, oil-red O staining of lipid droplets. Type of assay: cell-based. Conditions: 14 μM from day 2 to 4; staining at day 6. The procedure: as §4

As for `CCCCC[C@H](O)/C=C/[C@@H]1[C@@H](C/C=C\CCCC(=O)O)[C@H](O)C[C@H]1O` [PGF2β], in the assay on PGR3/ZADH2, the “specific activity as substrate of PGR3/ZADH2” value is “no specific activity was detected”.

`O=c1c(O)c(-c2ccccc2)oc2cc(O)cc(O)c12` [Compound 8]: the activity at 50 µM at Mouse PGR3/ZADH2 was determined as 11.4%; at Human PGR3/ZADH2 it was 25.6%.

For the molecule `CCCCCC(=O)/C=C/[C@@H]1[C@@H](C/C=C\CCCC(=O)O)[C@@H](O)C[C@H]1O` [15-keto PGF2α], the “specific activity as substrate of PGR3/ZADH2” value in the assay on PGR3/ZADH2 is reported as “reacted specifically”. Moreover, the “endogenous PPAR activity (reporter gene)” value with endogenous PPAR is “enhanced endogenous PPAR activity significantly”. Besides, the “activation of PPAR-gamma (GAL4 fusion, luciferase reporter)” value on PPAR-gamma is given as “activated PPAR-gamma”.

Consider `CCCCC[C@H](O)/C=C/[C@@H]1[C@@H](CC(=O)CCCCC(=O)O)[C@@H](O)C[C@H]1O` [6-keto PGF1α], for which, in the assay on PGR3/ZADH2, the “specific activity as substrate of PGR3/ZADH2” value was “no specific activity was detected”.

As for `CCCCCC(=O)CC[C@H]1[C@H](O)CC(=O)[C@@H]1C/C=C\CCCC(=O)O` [13,14-dihydro-15-keto PGE2], the “specific activity as substrate of PGR3/ZADH2” value with PGR3/ZADH2 is reported as “no specific activity was detected”. Besides, in the assay on endogenous PPAR, the “endogenous PPAR activity (reporter gene)” value is listed as “failed to increase PPAR activity”.

`CCCCCC(=O)/C=C/[C@H]1[C@H](O)CC(=O)[C@@H]1C/C=C\CCCC(=O)O` [15-keto PGE2]: in the assay with endogenous PPAR, the “endogenous PPAR activity (reporter gene)” value is on record as “enhanced endogenous PPAR activity significantly”. Moreover, the “amount of IRS-1 protein” value in the assay on PPAR-gamma target genes was “did not increase the amount of IRS-1 protein”. The “PPAR-gamma1 and PPAR-gamma2 protein expression” value in the assay with PPAR-gamma target genes (added with MIX, insulin and dexamethasone) was “significantly enhanced PPAR-gammal and PPAR-gamma2 expression”. In addition, the “expression of aP2” value with PPAR-gamma target genes (even in the absence of MIX) was “strongly induced expression of aP2”. The IRS-2 expression entry in the assay with PPAR-gamma target genes (in the presence of insulin and dexamethasone) is listed as “enhanced the expression to a level similar to MIX”. For the same molecule, the “adipogenesis (lipid droplets, oil-red O)” value with 3T3-L1 cells is given as “effectively enhanced adipogenesis at a level similar to BRL49653”. On PPAR-gamma, the “activation of PPAR-gamma (GAL4 fusion, luciferase reporter)” value is “activated PPAR-gamma”.

Consider `CCCCCC(=O)CCC1C(=O)CC(O)C1C/C=C\CCCC(=O)O` (centres unmarked) [13,14-dihydro-15-keto PGD2], for which the “specific activity as substrate of PGR3/ZADH2” value in the assay with PGR3/ZADH2 is “no specific activity was detected”.

With `COc1cc(/C=C/C(=O)c2cc(Br)ccc2O)cc(OC)c1OC` [Compound 13], the activity at 50 µM at Mouse PGR3/ZADH2 was 37.1%; on Human PGR3/ZADH2 it was 51.1%.

Regarding `CCCCCC(=O)/C=C/[C@@H]1[C@@H](CCCCCCC(=O)O)[C@@H](O)C[C@H]1O` [15-keto PGF1αL, 15-keto PGF1α], the “specific activity as substrate of PGR3/ZADH2” value in the assay with PGR3/ZADH2 was “reacted specifically”.

On to `COc1cc(/C=C/C(=O)c2ccccc2O)cc(OC)c1OC` [Compound 12], for which the activity at 50 µM turned out to be 6.4% at Mouse PGR3/ZADH2 and 27.5% on Human PGR3/ZADH2.

Regarding `CCCCC/C=C\C[C@@H](O)/C=C/C=C/C=C\[C@@H](O)CCCC(=O)O` [leukotriene B4], in the assay on PGR3/ZADH2, the “specific activity as substrate of PGR3/ZADH2” value was “no specific activity was detected”.

As to `O=c1c(O)c(-c2ccc(O)c(O)c2)oc2ccccc12` [Compound 27], the activity at 50 µM at Mouse PGR3/ZADH2 was determined as 87.4%; on Human PGR3/ZADH2 it was 91.1%.

On to `CCCCC[C@H](O)/C=C/[C@@H]1[C@@H](C/C=C\CCCC(=O)O)[C@@H](O)C[C@@H]1O` [Compound 11b-PGF2α, 11b-PGF2α], for which the “specific activity as substrate of PGR3/ZADH2” value in the assay with PGR3/ZADH2 was “no specific activity was detected”.

Take `CCCCCC(=O)/C=C/[C@H]1[C@H](O)CC(=O)[C@@H]1CCCCCCC(=O)O` [15-keto PGE1]: the “specific activity as substrate of PGR3/ZADH2” value with PGR3/ZADH2 is “reacted specifically”.

In the case of `CCCCCC(=O)CC[C@@H]1[C@@H](C/C=C\CCCC(=O)O)[C@@H](O)C[C@H]1O` [13,14-dihydro-15-keto PGF2α], the “specific activity as substrate of PGR3/ZADH2” value with PGR3/ZADH2 is given as “no specific activity was detected”. For the same molecule, in the assay on endogenous PPAR, the “endogenous PPAR activity (reporter gene)” value was “failed to increase PPAR activity”.
